Reference: patent publication US20250042879A1, “HETEROCYCLIC SUBSTITUTED 1,3,4-THIADIAZOLE AND PYRIDAZINE COMPOUNDS AND METHODS OF USING THE SAME” (Rgenta Therapeutics, Inc., priority 2021, published 2025)
Where a name gives a salt, the structure may show the parent alone.

Legend:
Type in all cases: cell-based
[1] = tested on: HTT (exclusion transcript); assay: RT-qPCR assay to quantify changes in HTT splice isoforms: exclusion transcript; conditions: Homo sapiens, SK-N-SH cells, approximately 96 hours, GAPDH reference
Method: (§1) SK—N—SH cells were seeded at 8.5e3 per well in a 96 well plate, in […] (×4 plates, quadruplicate) and treated with the indicated compounds at different concentrations with a final DMSO concentration of 0.5%. Vehicle controls were set up by diluting DMSO 1:200. Cells were returned to a humidified incubator at 37° C., 5% CO2 and treated for approximately 96 hours.
(§2) RNA was isolated from each well using QIAGEN RNeasy mini columns (cat #74004) as per the manufacturer's instructions. Each condition was done in quadruplicate as mentioned above to allow for adequate starting template for downstream analyses. These quadruplicates were pooled (by condition) into single replicates at the cell lysis step. Reverse-transcription was done using the Applied Biosystems High-Capacity cDNA Reverse Transcription Kit (cat #4368814), per the manufacturer's instructions, using approximately half of the harvested RNA. The cDNA was diluted 1:10 in nuclease-free water, and qPCR was done using Applied Biosystems PowerUp SYBR Green Master Mix (cat #A25742) per the manufacturer's instructions. Cycling conditions are primers are detailed below. Each sample was run in technical duplicates.
(§3) Data were analyzed using the 2-DDCT method. GAPDH was used as the reference gene, and vehicle (i.e. DMSO only) treated cells were used as the reference/untreated cell populations. Relative expression of the HTT transcripts was plotted using Graphpad Prism.

[2] = tested on: HTT (inclusion transcript); assay: RT-qPCR assay to quantify changes in HTT splice isoforms: inclusion transcript; conditions: Homo sapiens, SK-N-SH cells, approximately 96 hours, GAPDH reference
Method: as §1, §2, §3

HTT = assay: Mini-gene reporter assay-HTT (firefly luciferase, exon inclusion); conditions: for EC50: Homo sapiens, HTT mini-gene firefly luciferase reporter transiently transfected into HEK293 cells; for Emax at 5 µM: HTT Minigene, read-out: % Efficacy at 5 μM
Outline: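 HEK293 cells transiently transfected with a pcDNA3.1 mini-gene carrying the alternatively skipped exon with flanking introns and exons fused to firefly luciferase were incubated with compound, in duplicate. Exon inclusion raises luciferase luminescence. EC50 came from Levenberg-Marquardt curve fitting.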

Q: Which results are given for `Cc1cn2cc(-c3ccc(-c4ccc(C5CN(C)C5)nn4)c(O)c3)cc(C(F)(F)F)c2n1` [Compound 26, 5-[2-methyl-8-(trifluoromethyl)imidazo[1,2-a]pyridin-6-yl]-2-[6-(1-methylazetidin-3-yl)pyridazin-3-yl]phenol]?
A: EC50 [1]: 50 to 500 nM; EC50 [2]: 500 to 1000 nM; EC50 (HTT): ≥ 1000 nM

Q: Which results are given for `Cn1cc2cc(-c3ccc(-c4ccc(C5CN(C6CCOCC6)C5)nn4)c(O)c3)ccc2n1` [Compound 22, 5-(2-methyl-2H-indazol-5-yl)-2-{6-[1-(oxan-4-yl)azetidin-3-yl]pyridazin-3-yl}phenol]?
A: EC50 [1]: < 50 nM; EC50 (HTT): 500 to 1000 nM

Q: For `Cc1cn2cc(-c3ccc(-c4ccc(C5CN(C(C)C)C5)nn4)c(O)c3)cc(F)c2n1` [Compound 15, 5-{8-fluoro-2-methylimidazo[1,2-a]pyridin-6-yl}-2-{6-[1-(propan-2-yl)azetidin-3-yl]pyridazin-3-yl}phenol], which EC50 [1] is on record?
A: Its EC50 is under 50 nM.

Q: And the EC50 [2]?
A: The EC50 was under 50 nM.

Q: What about the EC50 (HTT) of the same compound?
A: Its EC50 is 50 to 500 nM.

Q: For `CC(C)N1CC(c2ccc(-c3ccc(-c4ccc5nn(C)cc5c4)cc3O)nn2)C1` [Compound 23, 2-(6-(1-isopropylazetidin-3-yl)pyridazin-3-yl)-5-(2-methyl-2H-indazol-5-yl)phenol], which EC50 [1] is on record?
A: The EC50 was under 50 nM.

Q: And the EC50 [2]?
A: The EC50 was over 1000 nM.

Q: And the EC50 (HTT)?
A: The EC50 was at least 1000 nM.

Q: How did the EC50 [1] turn out when `COc1cc(-c2ccc(-c3ccc(C4CN(C)C4)nn3)c(O)c2)cc2cn(C)nc12` [Compound 28, 5-(7-methoxy-2-methyl-2H-indazol-5-yl)-2-[6-(1-methylazetidin-3-yl)pyridazin-3-yl]phenol] was run?
A: The EC50 was under 50 nM.

Q: And the EC50 [2]?
A: The EC50 was 500 to 1000 nM.

Q: What about the EC50 (HTT) of the same compound?
A: The EC50 was 50 to 500 nM.

Q: How did the EC50 [1] turn out when `CCN1CC(c2ccc(-c3ccc(-c4ccc5nc(C)cn5n4)cc3O)nn2)C1` [Compound 38, 2-[6-(1-ethylazetidin-3-yl)pyridazin-3-yl]-5-{2-methylimidazo[1,2-b]pyridazin-6-yl}phenol] was run?
A: The EC50 was under 50 nM.

Q: What about the EC50 [2] of the same compound?
A: The EC50 was over 1000 nM.

Q: What about the EC50 (HTT) of the same compound?
A: The EC50 was 50 to 500 nM.

Q: For `CCN1CC(c2ccc(-c3ccc(-c4cc(C)c5nc(C)cn5c4)cc3O)nn2)C1` [Compound 36, 5-{2,8-dimethylimidazo[1,2-a]pyridin-6-yl}-2-[6-(1-ethylazetidin-3-yl)pyridazin-3-yl]phenol], which EC50 [1] is on record?
A: Its EC50 is 50 to 500 nM.

Q: And the EC50 (HTT)?
A: Its EC50 is at least 1000 nM.

Q: How did the EC50 (HTT) turn out when `CCN1CC(c2ccc(-c3ccc(-c4ccc5nn(C)cc5c4)cc3O)nn2)C1` [Compound 24, 2-[6-(1-ethylazetidin-3-yl)pyridazin-3-yl]-5-(2-methyl-2H-indazol-5-yl)phenol] was run?
A: The EC50 was 50 to 500 nM.

Q: With `CCN1CC(c2ccc(-c3ccc(-c4cc(C)c5nn(C)cc5n4)cc3O)nn2)C1` [Compound 62, 5-{2,7-dimethyl-2H-pyrazolo[4,3-b]pyridin-5-yl}-2-[6-(1-ethylazetidin-3-yl)pyridazin-3-yl]phenol] as the compound, how does the EC50 (HTT) read?
A: The EC50 was 500 to 1000 nM.

Q: How did the EC50 (HTT) turn out when `Cc1cn2nc(-c3ccc(-c4ccc(C5CN(C)C5)nn4)c(O)c3)ccc2n1` [Compound 37, 2-[6-(1-methylazetidin-3-yl)pyridazin-3-yl]-5-{2-methylimidazo[1,2-b]pyridazin-6-yl}phenol] was run?
A: The EC50 was 50 to 500 nM.

Q: `COc1cc(-c2ccc(-c3ccc(C4CN(C(C)C5CCCCO5)C4)nn3)c(O)c2)cc2cn(C)nc12` (centres unmarked) [Compound 187] was tested. Which Emax at 5 µM (HTT) did it give?
A: Its Emax at 5 µM is 25 to 75%.

Q: `Cc1cn2cc(-c3ccc(-c4ccc(C5CN(Cc6cn(C)nc6C)C5)nn4)c(O)c3)cc(F)c2n1` [Compound 81] was tested. Which Emax at 5 µM (HTT) did it give?
A: The Emax at 5 µM was 25 to 75%.

Q: `Cc1cn2nc(-c3ccc(-c4ccc(C5CNC5)nn4)c(O)c3)ccc2n1` [Compound 31, 2-[6-(azetidin-3-yl)pyridazin-3-yl]-5-{2-methylimidazo[1,2-b]pyridazin-6-yl}phenol] was tested. Which EC50 (HTT) did it give?
A: The EC50 was 500 to 1000 nM.

Q: How did the Emax at 5 µM (HTT) turn out when `COc1cc(-c2ccc(-c3ccc(C4CN(C(C)C5CCOCC5)C4)nn3)c(O)c2)cc2cn(C)nc12` (centres unmarked) [Compound 156] was run?
A: The Emax at 5 µM was over 750%.

Q: With `COc1cc(-c2ccc(-c3ccc(C4CN(CC5(SC)CC5)C4)nn3)c(O)c2)cc2cn(C)nc12` [Compound 174] as the compound, how does the Emax at 5 µM (HTT) read?
A: Its Emax at 5 µM is 25 to 75%.

Q: How did the Emax at 5 µM (HTT) turn out when `COc1cc(-c2ccc(-c3ccc(C4CN(C(C)C5CCOC5)C4)nn3)c(O)c2)cc2cn(C)nc12` (centres unmarked) [Compound 151] was run?
A: The Emax at 5 µM was over 750%.

Q: For `CCN1CC(c2ccc(-c3ccc(-c4cc(F)c5nc(C)cn5c4)cc3O)nn2)C1` [Compound 17, 2-[6-(1-ethylazetidin-3-yl)pyridazin-3-yl]-5-{8-fluoro-2-methylimidazo[1,2-a]pyridin-6-yl}phenol], which EC50 (HTT) is on record?
A: Its EC50 is 50 to 500 nM.

Q: `Cc1cn2cc(-c3ccc(-c4ccc(C5CN(C6CCOCC6C)C5)nn4)c(O)c3)cc(F)c2n1` (centres unmarked) [Compound 85] was tested. Which Emax at 5 µM (HTT) did it give?
A: The Emax at 5 µM was over 750%.

Q: Which EC50 (HTT) does the source give for `CCc1cc(-c2ccc(-c3ccc(C4CN(C5CCOCC5)C4)nn3)c(O)c2)nc2cn(C)nc12` [Compound 59, 5-{7-ethyl-2-methyl-2H-pyrazolo[4,3-b]pyridin-5-yl}-2-{6-[1-(oxan-4-yl)azetidin-3-yl]pyridazin-3-yl}phenol] here?
A: Its EC50 is at least 1000 nM.

Q: How did the Emax at 5 µM (HTT) turn out when `Cc1cn2cc(-c3ccc(-c4ccc(C5CN(CC6CCCOC6)C5)nn4)c(O)c3)cc(F)c2n1` (centres unmarked) [Compound 88] was run?
A: The Emax at 5 µM was 25 to 75%.

Q: Which Emax at 5 µM (HTT) does the source give for `COCCC(C)N1CC(c2ccc(-c3ccc(-c4cc(F)c5nc(C)cn5c4)cc3O)nn2)C1` (centres unmarked) [Compound 76] here?
A: Its Emax at 5 µM is over 750%.

Q: With `Cc1cc(-c2ccc(-c3ccc(C4CNC4)nn3)c(O)c2)cc2cn(C)nc12` [Compound 6, 2-(6-(azetidin-3-yl)pyridazin-3-yl)-5-(2,7-dimethyl-2H-indazol-5-yl)phenol hydrochloride] as the compound, how does the EC50 (HTT) read?
A: Its EC50 is 500 to 1000 nM.

Q: With `COCC(C)CN1CC(c2ccc(-c3ccc(-c4cc(F)c5nc(C)cn5c4)cc3O)nn2)C1` (centres unmarked) [Compound 104] as the compound, how does the Emax at 5 µM (HTT) read?
A: Its Emax at 5 µM is 25 to 75%.

Q: `COc1cc(-c2ccc(-c3ccc(C4CN(C5CC(C)OC5C)C4)nn3)c(O)c2)cc2cn(C)nc12` (centres unmarked) [Compound 177] was tested. Which Emax at 5 µM (HTT) did it give?
A: Its Emax at 5 µM is 25 to 75%.

Q: Which EC50 [1] does the source give for `Cc1cn2cc(-c3ccc(-c4ccc(C5CN(C)C5)nn4)c(O)c3)cc(F)c2n1` [Compound 12, 5-{8-fluoro-2-methylimidazo[1,2-a]pyridin-6-yl}-2-[6-(1-methylazetidin-3-yl)pyridazin-3-yl]phenol] here?
A: Its EC50 is under 50 nM.

Q: What about the EC50 [2] of the same compound?
A: The EC50 was 500 to 1000 nM.

Q: What about the EC50 (HTT) of the same compound?
A: Its EC50 is 50 to 500 nM.

Q: `COc1cc(-c2ccc(-c3ccc(C4CN(C5CC6(COC(C)C6)C5)C4)nn3)c(O)c2)cc2cn(C)nc12` (centres unmarked) [Compound 188] was tested. Which Emax at 5 µM (HTT) did it give?
A: Its Emax at 5 µM is 25 to 75%.

Q: `CCC(COC)N1CC(c2ccc(-c3ccc(-c4cc(F)c5nc(C)cn5c4)cc3O)nn2)C1` (centres unmarked) [Compound 92] was tested. Which Emax at 5 µM (HTT) did it give?
A: Its Emax at 5 µM is over 750%.

Q: How did the EC50 (HTT) turn out when `CCN1CC(c2ccc(-c3ccc(-c4cc5cn(C)nc5cn4)cc3O)nn2)C1` [Compound 46, 2-[6-(1-ethylazetidin-3-yl)pyridazin-3-yl]-5-{2-methyl-2H-pyrazolo[3,4-c]pyridin-5-yl}phenol] was run?
A: The EC50 was 500 to 1000 nM.

Q: For `COc1cc(-c2ccc(-c3ccc(C4CN(C5CCOCC5)C4)nn3)c(O)c2)cc2cn(C)nc12` [Compound 49, 5-(7-methoxy-2-methyl-2H-indazol-5-yl)-2-{6-[1-(oxan-4-yl)azetidin-3-yl]pyridazin-3-yl}phenol], which EC50 (HTT) is on record?
A: The EC50 was 500 to 1000 nM.

Q: `Cc1cn2cc(-c3ccc(-c4ccc(C5CN(C(C)C6CCCO6)C5)nn4)c(O)c3)cc(F)c2n1` (centres unmarked) [Compound 95] was tested. Which Emax at 5 µM (HTT) did it give?
A: The Emax at 5 µM was over 750%.

Q: Which Emax at 5 µM (HTT) does the source give for `COc1cc(-c2ccc(-c3ccc(C4CN(C5CCC(OC)CC5)C4)nn3)c(O)c2)cc2cn(C)nc12` (centres unmarked) [Compound 144] here?
A: The Emax at 5 µM was over 750%.

Q: `Cc1cc(-c2ccc(-c3ccc(C4CN(C)C4)nn3)c(O)c2)cc2cn(C)nc12` [Compound 27, 5-(2,7-dimethyl-2H-indazol-5-yl)-2-[6-(1-methylazetidin-3-yl)pyridazin-3-yl]phenol] was tested. Which EC50 (HTT) did it give?
A: Its EC50 is 50 to 500 nM.

Q: With `COc1cc(-c2ccc(-c3ccc(C4CN(C(C)Cc5cnccn5)C4)nn3)c(O)c2)cc2cn(C)nc12` (centres unmarked) [Compound 173] as the compound, how does the Emax at 5 µM (HTT) read?
A: The Emax at 5 µM was 25 to 75%.

Q: `Cc1cn2cc(-c3ccc(-c4ccc(C5CNC5)nn4)c(O)c3)ncc2n1` [Compound 33, 2-[6-(azetidin-3-yl)pyridazin-3-yl]-5-{2-methylimidazo[1,2-a]pyrazin-6-yl}phenol] was tested. Which EC50 (HTT) did it give?
A: Its EC50 is 500 to 1000 nM.

Q: For `CCN1CC(c2ccc(-c3ccc(-c4cc(OC)c5nn(C)cc5c4)cc3O)nn2)C1` [Compound 48, 2-[6-(1-ethylazetidin-3-yl)pyridazin-3-yl]-5-(7-methoxy-2-methyl-2H-indazol-5-yl)phenol], which EC50 (HTT) is on record?
A: The EC50 was 50 to 500 nM.

Q: `CCN1CCC(N2CC(c3ccc(-c4ccc(-c5cc(OC)c6nn(C)cc6c5)cc4O)nn3)C2)CC1` [Compound 132] was tested. Which Emax at 5 µM (HTT) did it give?
A: Its Emax at 5 µM is under 25%.
